Legend:
[1] = system: Porcine atria myofibrils (atrial myosin ATPase); experiment: Myofibril ATPase assay, porcine atria myofibrils; format: biochemical; details: Y75 value (no ‡ mark); porcine atria myofibrils
Experimental: (§1) Example 1. Myofibril ATPase Assay
(§2) Myofibril ATPase assays are known in the art to be useful in evaluating small molecules for the treatment of HCM and other cardiac indications. Myosin ATPase activity is assessed by using a coupled reaction system, in which ADP generated by the myosin ATPase function is coupled to the disappearance of NADH through the pyruvate kinase/lactate dehydrogenase (PK-LDH) system. ATPase activity produces ADP, which is used as a substrate for PK to produce pyruvate and regenerate ATP. The pyruvate is then used as a substrate by LDH to oxidize NADH to NAD+. The rate of the reaction is monitored through the time-dependent disappearance of NADH using absorbance at 340 nm, which, when the couple system is in stoichiometric excess, is directly correlated to the ATPase activity of the myosin. Inhibition of ATPase activity by the assayed compounds is indicated by a reduced rate of NADH loss, relative to vehicle-treated controls, over the experimental time window. Activation of ATPase activity by the assayed compounds is indicated by an increased rate of NADH loss, relative to vehicle-treated controls, over the experimental time window. Rabbit Psoas, Porcine atria, and Porcine ventricle are the primary sources of myofibril material.
(§3) Materials: The following stock solutions and reagents were used in the Myofibril ATPase Assay:
(§4) Stock Solutions of pCa buffer. Combine PIPES, CaCl2, and EGTA solutions with water. Adjust pH to 7.0 and bring final volume to 100 mL.
(§5) Buffer A & Buffer B. Prepare buffers A and B according to the table below.
(§6) Myofibril ATPase Assay Procedure: BSA, ATP, NADH, PEP, and DTT solutions were thawed at room temperature, then transferred to ice. Pellet-frozen myofibrils were transferred with approximately twice the required volume into a sufficiently large tube and capped. Myofibrils were thawed by rolling in a water bath for approximately 15 min at room temperature and cooled on ice. Buffers A and B were prepared by adjusting volumes as necessary for required number of wells and stored on ice. 0.5 μL of the compounds to be assayed were added into wells. 25 μL of Buffer A was dispensed into the wells, followed by 25 μL of Buffer B. The wells were measured for absorbance at 340 nm, using a kinetic protocol in which the wells are read every 1.5-2 min for 75 min. Assay data analysis was performed using a python script that filtered the raw data to retain those points falling between a starting and ending time and between a maximum and minimum absorbance, then used the filtered time-domain 340 nm absorbance data in each well to calculate a slope via linear regression analysis in units of mAU/min. Compound slopes were normalized between 100% and 0% activity, where 100% represented the slope of wells containing only compound vehicle, and fit to a 4-parameter logistic model. In addition to the fit parameters, the EC25% values were calculated, relative to the 100% normalized value. Additionally, the Y125 values were calculated for compounds that increased myosin ATP-ase activity. Fit parameters, calculated effective concentrations, filtered raw data, and calculated slopes were exported, in addition to compound-specific graphs of normalized ATPase activity versus concentration in μM. Each value reported in Table 5, Table 6, and Table 7 is either a Y75 value or a Y125 value. Values without a double cross sign, ‡, are Y75 values, which reflect the concentration required to reduce myosin ATP-ase activity by 25% (e.g., Y-axis activity value is 75% of initial value), relative to myosin ATP-ase activity in the absence of exogenous compound.
(§7) Myofibrils from various animals and tissue types were acquired from a variety of sources: rabbit psoas muscle was purchased from Pel-Freez Biologicals (Rogers, AR) and porcine cardiac muscle was purchased from Exemplar Genetics. All myofibrils were prepared using a method based upon those described in Herrmann et al. (1993) and summarized here. […]

[2] = system: Rabbit Psoas myofibrils (skeletal myosin ATPase); experiment: Myofibril ATPase assay, rabbit psoas (skeletal) myofibrils; format: biochemical; details: Y75 value (no ‡ mark); rabbit psoas myofibrils
Experimental: as §1, §2, §3, §4, §5, §6
Skeletal Myofibril Isolation:
as §7

[3] = target: T1, Porcine ventricle myofibrils (ventricular myosin ATPase) (Sus scrofa, UniProt P79293); experiment: Myofibril ATPase assay, porcine ventricle myofibrils; format: biochemical, porcine (Yucatan minipigs); details: Y75 value (no ‡ mark); porcine ventricle myofibrils
T1 construct: Myofibrils from porcine cardiac muscle was isolated from the left ventricle of Yucatan minipigs; tissue Exemplar Genetics; host or cells: left ventricle of Yucatan minipigs, myofibrils prepared in house
T1 sequence (P79293 whole entry): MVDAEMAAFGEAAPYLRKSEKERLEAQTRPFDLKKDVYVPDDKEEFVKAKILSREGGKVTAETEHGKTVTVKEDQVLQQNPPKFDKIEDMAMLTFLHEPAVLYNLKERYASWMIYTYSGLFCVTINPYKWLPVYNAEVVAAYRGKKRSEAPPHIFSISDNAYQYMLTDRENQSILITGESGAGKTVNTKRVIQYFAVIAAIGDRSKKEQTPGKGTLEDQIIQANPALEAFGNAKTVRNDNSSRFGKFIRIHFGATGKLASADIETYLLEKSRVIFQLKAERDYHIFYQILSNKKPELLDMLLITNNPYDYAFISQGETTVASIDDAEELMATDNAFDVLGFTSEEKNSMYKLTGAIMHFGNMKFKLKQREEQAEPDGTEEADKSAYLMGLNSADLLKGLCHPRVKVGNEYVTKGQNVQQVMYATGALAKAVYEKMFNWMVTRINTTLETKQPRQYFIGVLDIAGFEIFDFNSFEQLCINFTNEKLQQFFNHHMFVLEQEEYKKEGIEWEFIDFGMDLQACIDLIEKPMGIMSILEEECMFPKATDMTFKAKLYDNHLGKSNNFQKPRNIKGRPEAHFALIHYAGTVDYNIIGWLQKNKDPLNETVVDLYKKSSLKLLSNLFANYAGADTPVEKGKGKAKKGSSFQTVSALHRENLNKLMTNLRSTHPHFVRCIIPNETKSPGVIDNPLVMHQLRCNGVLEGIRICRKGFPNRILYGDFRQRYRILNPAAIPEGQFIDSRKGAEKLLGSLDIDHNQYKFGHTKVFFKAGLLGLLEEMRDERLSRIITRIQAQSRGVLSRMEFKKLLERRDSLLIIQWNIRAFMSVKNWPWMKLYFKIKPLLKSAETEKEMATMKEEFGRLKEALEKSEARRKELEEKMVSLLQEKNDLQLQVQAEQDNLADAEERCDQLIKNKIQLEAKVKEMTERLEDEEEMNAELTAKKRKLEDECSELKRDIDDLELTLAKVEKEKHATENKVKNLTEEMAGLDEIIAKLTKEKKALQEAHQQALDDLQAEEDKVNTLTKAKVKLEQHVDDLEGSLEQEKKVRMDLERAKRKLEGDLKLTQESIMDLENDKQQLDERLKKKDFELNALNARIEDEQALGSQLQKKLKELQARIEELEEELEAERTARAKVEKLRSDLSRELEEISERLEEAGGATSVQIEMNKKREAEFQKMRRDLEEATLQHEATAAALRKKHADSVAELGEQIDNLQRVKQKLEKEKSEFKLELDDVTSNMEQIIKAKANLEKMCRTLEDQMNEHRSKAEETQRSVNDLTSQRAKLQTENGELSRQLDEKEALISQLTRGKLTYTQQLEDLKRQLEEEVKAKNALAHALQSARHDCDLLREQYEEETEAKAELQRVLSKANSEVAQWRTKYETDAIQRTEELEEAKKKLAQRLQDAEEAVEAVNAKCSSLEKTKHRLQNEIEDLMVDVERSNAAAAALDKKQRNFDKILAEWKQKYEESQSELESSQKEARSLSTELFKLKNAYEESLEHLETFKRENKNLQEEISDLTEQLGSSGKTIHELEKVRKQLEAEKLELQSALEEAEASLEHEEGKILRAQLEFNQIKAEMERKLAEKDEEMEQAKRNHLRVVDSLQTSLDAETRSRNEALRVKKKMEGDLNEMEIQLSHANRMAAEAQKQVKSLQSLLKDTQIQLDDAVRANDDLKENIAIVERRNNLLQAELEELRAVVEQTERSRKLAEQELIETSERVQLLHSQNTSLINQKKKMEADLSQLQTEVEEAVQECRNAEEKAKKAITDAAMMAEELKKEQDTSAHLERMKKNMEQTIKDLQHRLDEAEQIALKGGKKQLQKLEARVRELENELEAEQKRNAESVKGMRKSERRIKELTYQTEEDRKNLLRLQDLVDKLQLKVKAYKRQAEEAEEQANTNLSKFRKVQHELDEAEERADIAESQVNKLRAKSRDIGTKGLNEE
Experimental: as §1, §2, §3, §4, §5, §6
Cardiac Myofibril Isolation:
Myofibrils from porcine cardiac muscle was isolated from the left ventricle of Yucatan minipigs. Myofibrils were prepared using a method based upon those described in Herrmann et al. (1993) and summarized here. […]

Compound | Atrial EC25 [1] | Skeletal EC25 [2] | Ventricular EC25 [3]
Cc1nc(C#N)cnc1[C@@H](C)NC(=O)Cc1cc2cc(F)c(F)cc2[nH]c1=O (single isomer, unassigned) [compound 5] | 1.45 µM | 3.60 µM | 4.13 µM
Cc1nc(C#N)cnc1[C@H](C)NC(=O)Cc1cc2cc(F)c(F)cc2[nH]c1=O (single isomer, unassigned) [compound 6] | 0.81 µM | 0.30 µM | 0.95 µM
C[C@H](NC(=O)[C@@H](C)c1c(C(F)(F)F)c2cc(F)ccc2[nH]c1=O)c1ccc(F)cc1F (single isomer, unassigned) [compound 57] | 0.15 µM | 0.07 µM | 100.00 µM
C[C@H](NC(=O)[C@H](C)c1c(C(F)(F)F)c2cc(F)ccc2[nH]c1=O)c1ccc(F)cc1F (single isomer, unassigned) [compound 58] | 0.06 µM | 0.15 µM | 1.32 µM
COc1ccc2[nH]c(=O)c(CC(=O)N[C@H](C)c3ncc(F)cc3F)cc2c1C (single isomer, unassigned) [compound 79] | 100.00 µM | 100.00 µM | 100.00 µM
COc1ccc2[nH]c(=O)c(CC(=O)N[C@@H](C)c3ncc(F)cc3F)cc2c1C (single isomer, unassigned) [compound 80] | 100.00 µM | 18.54 µM | 100.00 µM
C[C@H](NC(=O)[C@H](C)c1cc2c(Cl)c(O)ccc2[nH]c1=O)c1ccc(F)cc1F (single isomer, unassigned) [compound 86] | 100.00 µM | 100.00 µM | 100.00 µM
C[C@H](NC(=O)[C@@H](C)c1cc2c(Cl)c(O)ccc2[nH]c1=O)c1ccc(F)cc1F (single isomer, unassigned) [compound 88] | 83.97 µM | 74.46 µM | 88.39 µM
Cc1c(CC(=O)N[C@H](CO)c2ccc(F)cc2F)c(=O)[nH]c2cccc(C#N)c12 (single isomer, unassigned) [compound 89] | 0.05 µM | 0.04 µM | 0.32 µM
Cc1c(CC(=O)N[C@@H](CO)c2ccc(F)cc2F)c(=O)[nH]c2cccc(C#N)c12 (single isomer, unassigned) [compound 90] | 23.51 µM | 1.26 µM | 100.00 µM
C[C@H](NC(=O)[C@@H](C)c1c(C(F)(F)F)c2c(F)cccc2[nH]c1=O)c1ccc(F)cc1F (single isomer, unassigned) [compound 97] | 0.19 µM | 0.23 µM | 5.34 µM
C[C@H](NC(=O)[C@H](C)c1c(C(F)(F)F)c2c(F)cccc2[nH]c1=O)c1ccc(F)cc1F (single isomer, unassigned) [compound 98] | 0.53 µM | 0.06 µM | 4.12 µM
C[C@H](NC(=O)[C@@H](C)c1c(C(F)(F)F)c2cc(F)ccc2[nH]c1=O)c1ccc(F)cc1F (single isomer, unassigned) [compound 99] | 0.13 µM | 0.09 µM | 100.00 µM
C[C@H](NC(=O)[C@H](C)c1c(C(F)(F)F)c2cc(F)ccc2[nH]c1=O)c1ccc(F)cc1F (single isomer, unassigned) [compound 100] | 0.06 µM | 0.04 µM | 0.69 µM
C[C@H](NC(=O)[C@@H](C)c1cc2c(F)cccc2[nH]c1=O)c1ccc(F)cc1F (single isomer, unassigned) [compound 102] | 100.00 µM | 3.90 µM | 100.00 µM
C[C@H](NC(=O)[C@H](C)c1cc2c(F)cccc2[nH]c1=O)c1ccc(F)cc1F (single isomer, unassigned) [compound 103] | 1.13 µM | 1.64 µM | 100.00 µM
Cc1c([C@@H](C)C(=O)N[C@@H](C)c2ccc(F)cc2F)c(=O)[nH]c2ccc(F)c(F)c12 (single isomer, unassigned) [compound 108] | 0.04 µM | 0.05 µM | 0.28 µM

The next lines start with the values.

Atrial EC25 [1] | Skeletal EC25 [2] | Ventricular EC25 [3] | Compound
3.80 µM | 0.81 µM | 1.27 µM | N#Cc1cnc2c(c1)CC[C@H]2NC(=O)Cc1cc2c(F)c(F)ccc2[nH]c1=O (single isomer, unassigned) [compound 7]
100.00 µM | 100.00 µM | 100.00 µM | N#Cc1cnc2c(c1)CC[C@@H]2NC(=O)Cc1cc2c(F)c(F)ccc2[nH]c1=O (single isomer, unassigned) [compound 8]
0.05 µM | 0.07 µM | 0.15 µM | C[C@@H](NC(=O)Cc1cc2c(F)c(F)ccc2[nH]c1=O)c1cnc(C#N)cn1 (single isomer, unassigned) [compound 11]
0.03 µM | 0.03 µM | 0.11 µM | C[C@H](NC(=O)Cc1cc2c(F)c(F)ccc2[nH]c1=O)c1cnc(C#N)cn1 (single isomer, unassigned) [compound 12]
0.32 µM | 0.05 µM | 0.09 µM | N#Cc1cnc2c(c1)OC[C@H]2NC(=O)Cc1cc2c(F)c(F)ccc2[nH]c1=O (single isomer, unassigned) [compound 13]
0.21 µM | 0.07 µM | 0.34 µM | N#Cc1cnc2c(c1)OC[C@@H]2NC(=O)Cc1cc2c(F)c(F)ccc2[nH]c1=O (single isomer, unassigned) [compound 14]
0.05 µM | 0.27 µM | 0.62 µM | Cc1c(CC(=O)N[C@H]2COc3cc(C#N)cc(F)c32)c(=O)[nH]c2ccc(F)c(C#N)c12 (single isomer, unassigned) [compound 60]
0.42 µM | 1.55 µM | 62.72 µM | O=C(Cc1cc2c(F)c(F)ccc2[nH]c1=O)N[C@@H]1COc2ncccc21 (single isomer, unassigned) [compound 63]
100.00 µM | 83.26 µM | 100.00 µM | O=C(Cc1cc2c(F)c(F)ccc2[nH]c1=O)N[C@H]1COc2ncccc21 (single isomer, unassigned) [compound 64]
100.00 µM | 47.84 µM | 100.00 µM | Cc1c(O)ccc2[nH]c(=O)c(CC(=O)N[C@H](C)c3ncc(F)cc3F)cc12 (single isomer, unassigned) [compound 77]
7.08 µM | 6.60 µM | 100.00 µM | Cc1c(O)ccc2[nH]c(=O)c(CC(=O)N[C@@H](C)c3ncc(F)cc3F)cc12 (single isomer, unassigned) [compound 78]

Reference: patent US12448369B2 (Edgewise Therapeutics, Inc., priority 2023, dated 2025)
